The record followed here is patent publication US9422267B2, “Fused pyrimidine compounds and use thereof” (Medivation Technologies, Inc., priority 2012, dated 2016).

One assay deals with MDA MB 175. Nature of the assay: Cell Titer-Glo cell viability: MDA MB 175. The class given is cell-based. The protocol:
(§1) Compound nos. […] This panel of cell lines includes an ER− breast carcinoma, primary breast ductal carcinoma, prostate adenocarcinoma, mammary adenocarcinoma, mammary ductal carcinoma, mammary ductal carcinoma, ovary adenocarcinoma, ER+ breast carcinoma, ER-HER2+ mammary ductal carcinoma and an ER+ mammary ductal carcinoma, respectively.
(§2) This assay quantitates the ATP present in order to determine the number of viable cells in culture. Briefly, the compounds were incubated with the cells for 72 h, followed by cell lysis. The resulting luminescent signal is proportional to the amount of ATP present and, therefore, directly proportional to the number of cells present in culture.
(§3) Compounds 2b, 5, 6b and 10a were tested along with derivatives in viability assays as described above by Caliper LifeSciences Systems (Hanover, Md.), in A549, HCT-15, HCT-116, MCF-7, MDA-MB-231, OVCAR3, T47D, COLO205, HT-29, BT-20, HCC1187, HL-60, MDA-MB-175, SW-620, and UACC812 cells.
The inhibitory effects of Compound 8a were tested in two cell lines.
In general terms: In ATP-based viability assays light output follows the ATP content of the culture.

The next assay deals with COLO 205. In words: Cell Titer-Glo cell viability: COLO 205. The class given is cell-based. The note with it: Homo sapiens, COLO 205, 72 h. The method, then: as §2
(§4) Compound nos. […] These cell lines are derived from human lung carcinoma, colon adenocarcinoma, colon adenocarcinoma, colon carcinoma, acute promyelocytic leukemia, colon adenocarcinoma, colon adenocarcinoma (from metastatic site lymph node), respectively.
as §3

In the next assay the target is IGF1R (Homo sapiens, UniProt P08069). In words: Caliper kinase profiling: IGF1R. The class given is biochemical. Also noted: purchased Caliper LifeSciences (ProfilerPro Kinase Selectivity Assay Kits). Particulars: for inhibition at 0.01 µM: 10 nM, read-out: Average % Inh @ 10 nM.
In a further assay the target is T1, AXL (Homo sapiens, UniProt P30530).
T1 sequence (P30530 26-894): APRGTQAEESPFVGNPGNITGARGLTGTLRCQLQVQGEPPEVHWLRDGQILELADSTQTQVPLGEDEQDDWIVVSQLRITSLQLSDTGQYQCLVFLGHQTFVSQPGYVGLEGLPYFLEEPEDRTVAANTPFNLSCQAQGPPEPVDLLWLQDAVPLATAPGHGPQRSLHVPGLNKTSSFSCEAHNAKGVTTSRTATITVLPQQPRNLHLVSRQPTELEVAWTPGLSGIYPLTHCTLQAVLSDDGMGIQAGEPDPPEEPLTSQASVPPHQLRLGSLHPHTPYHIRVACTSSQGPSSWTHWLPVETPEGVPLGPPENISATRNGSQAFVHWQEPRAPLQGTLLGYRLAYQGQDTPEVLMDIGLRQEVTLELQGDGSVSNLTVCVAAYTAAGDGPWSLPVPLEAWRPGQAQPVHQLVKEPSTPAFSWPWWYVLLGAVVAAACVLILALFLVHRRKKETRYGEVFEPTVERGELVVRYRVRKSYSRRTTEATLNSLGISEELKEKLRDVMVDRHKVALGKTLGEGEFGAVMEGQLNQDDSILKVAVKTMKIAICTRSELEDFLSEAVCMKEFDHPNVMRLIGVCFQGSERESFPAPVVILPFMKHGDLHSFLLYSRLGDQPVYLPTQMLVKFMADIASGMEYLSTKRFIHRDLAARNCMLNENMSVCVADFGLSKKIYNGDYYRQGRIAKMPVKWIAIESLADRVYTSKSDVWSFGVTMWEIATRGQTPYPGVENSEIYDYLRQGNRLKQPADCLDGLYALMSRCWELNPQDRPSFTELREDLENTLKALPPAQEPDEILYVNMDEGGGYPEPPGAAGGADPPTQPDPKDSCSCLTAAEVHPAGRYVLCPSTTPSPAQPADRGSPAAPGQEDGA
In words: Caliper kinase profiling: AXL. The note with it: for inhibition at 0.01 µM: read-out: Average % Inh @ 10 nM; for inhibition of AXL in panel of 11 kinases: 0.01 μM.

The subject of a further assay is A549. Nature of the assay: Cell Titer-Glo cell viability: A549. The note with it: Homo sapiens, A549, 72 h, A549, non-small lung carcinoma. It counts as cell-based. The method, then:
as §2, §4, §3

In the next assay the test system is BT-20. Nature of the assay: Cell Titer-Glo cell viability: BT-20. It counts as cell-based. The note with it: Homo sapiens. The protocol:
as §1, §2, §3

Another assay concerns the target T2, ROS(ROS1) (Homo sapiens, UniProt P08922).
T2 construct: purchased Caliper LifeSciences (ProfilerPro Kinase Selectivity Assay Kits)
In words: Caliper kinase profiling: ROS(ROS1). It counts as biochemical. The note with it: for inhibition at 0.01 µM: 10 nM, read-out: Average % Inh @ 10 nM. The text has this: ROS1 is a proto-oncogene and is highly expressed in many cancers.

Another assay addresses FAK2(PTK2b) (Homo sapiens, UniProt Q14289). Nature of the assay: Caliper kinase assay: FAK2(PTK2b). The note with it: for inhibition of FAK2 in panel of 11 kinases: 0.01 μM.
The target of a further assay is T3, AurA (Homo sapiens, UniProt O14965).
T3 sequence (O14965 1-403): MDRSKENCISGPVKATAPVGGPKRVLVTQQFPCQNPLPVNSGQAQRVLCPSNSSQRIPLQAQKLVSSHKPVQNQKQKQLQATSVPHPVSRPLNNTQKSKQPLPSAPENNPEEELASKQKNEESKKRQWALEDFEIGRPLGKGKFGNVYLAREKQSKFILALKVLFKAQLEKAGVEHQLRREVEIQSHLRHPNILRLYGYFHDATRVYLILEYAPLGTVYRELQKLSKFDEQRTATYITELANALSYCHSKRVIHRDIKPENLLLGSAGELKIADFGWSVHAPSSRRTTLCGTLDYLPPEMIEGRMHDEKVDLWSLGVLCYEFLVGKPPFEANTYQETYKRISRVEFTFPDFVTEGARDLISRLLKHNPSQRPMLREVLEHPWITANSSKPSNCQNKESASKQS
Nature of the assay: Caliper kinase profiling: AurA.

Another assay relates to MDA MB 231. Nature of the assay: Cell Titer-Glo cell viability: MDA MB 231. The class given is cell-based. The note with it: Homo sapiens, MDAMB231, breast cancer. The method, then: as §1, §2, §3
The next assay deals with T4, INSR (Homo sapiens, UniProt P06213).
T4 construct: purchased Caliper LifeSciences (ProfilerPro Kinase Selectivity Assay Kits)
In words: Caliper kinase profiling: INSR. It counts as biochemical. Particulars: for inhibition at 0.01 µM: 10 nM, read-out: Average % Inh @ 10 nM.

The target of a further assay is T5, MET (Homo sapiens, UniProt P08581).
T5 construct: purchased Caliper LifeSciences (ProfilerPro Kinase Selectivity Assay Kits)
Nature of the assay: Caliper kinase profiling: MET. It counts as biochemical. The note with it: for inhibition at 0.01 µM: 10 nM, read-out: Average % Inh @ 10 nM.

Setting [1] is: COLO-205, colon adenocarcinoma, 72 h.
The mark [2] stands for this setting: 1 nM, read-out: Average % Inh @ 1 nM.
The mark [3] stands for this setting: MDA-MB-175, breast cancer, 72 h incubation, Cell Titer-Glo.
The mark [4] stands for this setting: COLO205, colon cancer, 72 h incubation, Cell Titer-Glo.
The mark [5] stands for this setting: 72 h incubation, Cell Titer-Glo.
The mark [6] stands for this setting: BT-20, breast cancer, 72 h incubation, Cell Titer-Glo.
[7] abbreviates: 100 nM, read-out: Average % Inh @ 100 nM.
Setting [8] is: 1 μM, read-out: Average % Inh @ 1 μM.
The mark [9] stands for this setting: read-out: Average % Inh @ 100 nM.

T4 sequence (P06213 28-1382): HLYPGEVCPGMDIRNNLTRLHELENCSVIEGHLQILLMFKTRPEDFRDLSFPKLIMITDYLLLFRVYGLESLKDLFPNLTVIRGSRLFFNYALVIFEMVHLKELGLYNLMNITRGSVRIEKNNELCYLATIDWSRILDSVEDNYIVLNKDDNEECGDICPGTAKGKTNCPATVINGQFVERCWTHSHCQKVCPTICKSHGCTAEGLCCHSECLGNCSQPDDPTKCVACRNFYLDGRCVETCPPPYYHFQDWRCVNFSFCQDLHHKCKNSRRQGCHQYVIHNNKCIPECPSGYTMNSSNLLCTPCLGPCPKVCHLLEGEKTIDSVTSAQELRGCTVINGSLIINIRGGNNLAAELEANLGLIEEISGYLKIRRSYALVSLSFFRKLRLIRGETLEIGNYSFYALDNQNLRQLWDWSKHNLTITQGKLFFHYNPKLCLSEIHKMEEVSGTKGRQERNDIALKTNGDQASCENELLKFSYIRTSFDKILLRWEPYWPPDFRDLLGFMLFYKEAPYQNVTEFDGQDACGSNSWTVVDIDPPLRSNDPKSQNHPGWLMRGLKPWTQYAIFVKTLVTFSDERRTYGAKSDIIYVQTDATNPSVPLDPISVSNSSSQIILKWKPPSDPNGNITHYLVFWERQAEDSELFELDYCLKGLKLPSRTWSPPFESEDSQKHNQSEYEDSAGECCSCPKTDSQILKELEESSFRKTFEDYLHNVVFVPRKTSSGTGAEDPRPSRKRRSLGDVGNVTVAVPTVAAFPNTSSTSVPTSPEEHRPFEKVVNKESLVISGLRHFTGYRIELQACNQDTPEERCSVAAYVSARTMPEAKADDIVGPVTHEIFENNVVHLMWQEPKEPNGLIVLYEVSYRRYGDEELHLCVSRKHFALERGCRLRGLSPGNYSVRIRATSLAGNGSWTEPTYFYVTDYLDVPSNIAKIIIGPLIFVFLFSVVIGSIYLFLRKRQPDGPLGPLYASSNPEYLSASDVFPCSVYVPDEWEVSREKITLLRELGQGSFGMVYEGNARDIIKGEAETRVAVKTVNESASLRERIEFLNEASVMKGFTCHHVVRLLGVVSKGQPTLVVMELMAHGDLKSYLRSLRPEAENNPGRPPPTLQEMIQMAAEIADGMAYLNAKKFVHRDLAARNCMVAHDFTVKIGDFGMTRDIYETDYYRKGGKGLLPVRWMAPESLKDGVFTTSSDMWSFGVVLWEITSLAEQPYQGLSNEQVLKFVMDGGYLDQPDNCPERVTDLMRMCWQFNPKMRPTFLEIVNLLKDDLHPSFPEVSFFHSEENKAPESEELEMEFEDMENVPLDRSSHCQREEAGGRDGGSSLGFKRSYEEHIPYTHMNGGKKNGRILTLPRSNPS
Chain of FAK2(PTK2b) (Q14289 whole entry): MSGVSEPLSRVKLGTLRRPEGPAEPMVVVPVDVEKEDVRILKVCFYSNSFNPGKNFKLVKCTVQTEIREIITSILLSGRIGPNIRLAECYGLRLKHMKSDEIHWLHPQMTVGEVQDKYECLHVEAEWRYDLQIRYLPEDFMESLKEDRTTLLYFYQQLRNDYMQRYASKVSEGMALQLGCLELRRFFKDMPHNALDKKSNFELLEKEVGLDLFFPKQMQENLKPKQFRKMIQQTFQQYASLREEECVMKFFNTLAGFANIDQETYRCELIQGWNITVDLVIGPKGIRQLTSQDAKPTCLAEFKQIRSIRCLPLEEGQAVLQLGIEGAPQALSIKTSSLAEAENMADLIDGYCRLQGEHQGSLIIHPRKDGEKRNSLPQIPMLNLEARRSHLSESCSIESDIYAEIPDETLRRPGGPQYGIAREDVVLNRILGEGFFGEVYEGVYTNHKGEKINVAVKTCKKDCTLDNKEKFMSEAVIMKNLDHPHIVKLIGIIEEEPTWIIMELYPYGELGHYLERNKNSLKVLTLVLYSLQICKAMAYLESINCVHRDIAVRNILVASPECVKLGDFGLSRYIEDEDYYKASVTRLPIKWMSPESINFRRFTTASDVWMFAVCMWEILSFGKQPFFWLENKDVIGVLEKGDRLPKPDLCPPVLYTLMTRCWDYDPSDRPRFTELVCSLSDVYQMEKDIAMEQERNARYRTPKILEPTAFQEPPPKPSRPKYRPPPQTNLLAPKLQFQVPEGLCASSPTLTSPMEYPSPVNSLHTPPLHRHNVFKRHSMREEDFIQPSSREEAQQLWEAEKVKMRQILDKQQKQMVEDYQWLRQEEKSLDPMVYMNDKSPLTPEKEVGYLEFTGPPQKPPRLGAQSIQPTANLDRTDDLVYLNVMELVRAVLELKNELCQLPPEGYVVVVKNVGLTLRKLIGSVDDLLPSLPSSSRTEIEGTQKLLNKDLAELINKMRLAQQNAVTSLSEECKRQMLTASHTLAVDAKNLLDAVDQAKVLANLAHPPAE
Chain of IGF1R (P08069 31-1367): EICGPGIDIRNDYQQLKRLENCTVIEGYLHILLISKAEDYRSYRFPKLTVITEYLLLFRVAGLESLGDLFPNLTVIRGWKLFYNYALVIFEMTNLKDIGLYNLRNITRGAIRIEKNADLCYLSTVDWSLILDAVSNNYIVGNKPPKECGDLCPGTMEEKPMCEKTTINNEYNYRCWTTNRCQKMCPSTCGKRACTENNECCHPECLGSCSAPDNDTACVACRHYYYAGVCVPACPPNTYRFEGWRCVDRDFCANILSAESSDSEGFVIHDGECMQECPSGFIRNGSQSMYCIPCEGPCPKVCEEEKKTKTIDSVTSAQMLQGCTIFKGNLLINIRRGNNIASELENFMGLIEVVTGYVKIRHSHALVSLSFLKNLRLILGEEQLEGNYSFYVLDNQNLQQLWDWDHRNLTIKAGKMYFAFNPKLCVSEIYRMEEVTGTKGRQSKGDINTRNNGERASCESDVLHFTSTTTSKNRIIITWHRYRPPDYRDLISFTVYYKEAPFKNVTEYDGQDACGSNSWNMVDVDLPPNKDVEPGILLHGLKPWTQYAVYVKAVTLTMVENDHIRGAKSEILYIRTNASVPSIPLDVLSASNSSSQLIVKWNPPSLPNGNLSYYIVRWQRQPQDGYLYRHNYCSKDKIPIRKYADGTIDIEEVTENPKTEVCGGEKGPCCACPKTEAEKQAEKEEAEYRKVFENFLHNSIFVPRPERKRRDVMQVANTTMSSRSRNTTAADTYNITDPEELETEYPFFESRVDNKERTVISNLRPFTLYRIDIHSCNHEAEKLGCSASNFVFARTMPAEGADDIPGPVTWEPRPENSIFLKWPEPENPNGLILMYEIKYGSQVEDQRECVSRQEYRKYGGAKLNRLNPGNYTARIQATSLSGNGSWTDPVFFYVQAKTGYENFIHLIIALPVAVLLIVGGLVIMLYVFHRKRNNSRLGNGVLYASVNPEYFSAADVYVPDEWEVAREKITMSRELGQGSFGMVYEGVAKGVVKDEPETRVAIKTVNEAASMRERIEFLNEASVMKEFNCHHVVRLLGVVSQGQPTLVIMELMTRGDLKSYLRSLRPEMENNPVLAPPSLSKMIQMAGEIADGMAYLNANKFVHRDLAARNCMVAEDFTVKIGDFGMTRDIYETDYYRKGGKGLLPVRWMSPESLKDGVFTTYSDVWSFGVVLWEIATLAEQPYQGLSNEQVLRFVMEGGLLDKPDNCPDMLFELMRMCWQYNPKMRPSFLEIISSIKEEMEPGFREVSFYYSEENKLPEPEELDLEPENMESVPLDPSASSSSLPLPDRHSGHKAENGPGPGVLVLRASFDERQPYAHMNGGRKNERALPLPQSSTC
T5 sequence (P08581 25-1390): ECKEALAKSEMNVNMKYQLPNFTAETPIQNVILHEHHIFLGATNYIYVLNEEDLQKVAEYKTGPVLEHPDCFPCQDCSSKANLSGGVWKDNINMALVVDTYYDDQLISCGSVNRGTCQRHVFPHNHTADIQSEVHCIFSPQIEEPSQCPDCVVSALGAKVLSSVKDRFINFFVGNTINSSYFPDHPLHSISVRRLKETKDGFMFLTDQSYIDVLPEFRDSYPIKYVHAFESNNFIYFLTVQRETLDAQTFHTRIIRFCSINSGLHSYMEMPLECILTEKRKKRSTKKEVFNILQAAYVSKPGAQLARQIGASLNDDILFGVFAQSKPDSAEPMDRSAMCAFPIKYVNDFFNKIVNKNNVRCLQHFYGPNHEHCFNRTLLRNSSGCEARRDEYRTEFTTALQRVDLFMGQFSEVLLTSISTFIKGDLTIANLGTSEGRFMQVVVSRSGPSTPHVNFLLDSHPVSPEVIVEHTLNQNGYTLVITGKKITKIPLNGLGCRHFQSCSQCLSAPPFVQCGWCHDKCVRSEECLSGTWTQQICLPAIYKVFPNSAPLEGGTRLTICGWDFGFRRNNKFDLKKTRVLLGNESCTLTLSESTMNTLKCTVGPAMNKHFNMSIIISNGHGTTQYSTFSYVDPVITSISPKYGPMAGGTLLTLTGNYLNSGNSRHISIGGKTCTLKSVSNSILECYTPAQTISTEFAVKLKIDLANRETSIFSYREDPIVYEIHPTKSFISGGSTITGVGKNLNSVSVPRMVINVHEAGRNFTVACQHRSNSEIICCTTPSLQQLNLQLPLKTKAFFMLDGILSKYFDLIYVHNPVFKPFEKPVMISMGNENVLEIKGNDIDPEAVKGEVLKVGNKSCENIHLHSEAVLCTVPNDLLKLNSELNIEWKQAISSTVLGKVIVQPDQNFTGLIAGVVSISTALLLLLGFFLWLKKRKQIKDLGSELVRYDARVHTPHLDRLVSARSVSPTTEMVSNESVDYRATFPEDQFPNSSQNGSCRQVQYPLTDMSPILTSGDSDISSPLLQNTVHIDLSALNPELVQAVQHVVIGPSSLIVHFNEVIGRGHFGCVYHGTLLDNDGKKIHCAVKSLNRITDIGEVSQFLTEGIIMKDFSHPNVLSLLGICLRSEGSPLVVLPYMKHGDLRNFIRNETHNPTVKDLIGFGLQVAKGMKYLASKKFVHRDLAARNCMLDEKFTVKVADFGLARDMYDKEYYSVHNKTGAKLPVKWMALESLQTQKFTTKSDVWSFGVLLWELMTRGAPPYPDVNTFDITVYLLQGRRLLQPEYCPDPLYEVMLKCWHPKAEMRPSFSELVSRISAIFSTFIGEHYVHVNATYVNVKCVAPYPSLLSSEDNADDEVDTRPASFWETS
Method for AXL: (§5) The compound was tested at concentrations of 1.0×10^−8 and 1.0×10^−9 M in the RapidKinase192™ panel in duplicate. […] The screening was performed using the Caliper EZReader2, a 4-sipper LabChip, and ProfilerPro Kinase Selectivity Assay Kits 1 and 2. The assay measures the conversion of a fluorescent peptide substrate to a phosphorylated product. Briefly, the reaction mixture was introduced through a capillary sipper onto the microfluidic chip, where the substrate and product were electrophoretically separated and detected by laser-induced fluorescence. The time-dependent fluorescence signal indicates the extent of the reaction.
(§6) The kinases tested were AurA, AurB, AurC, AXL, FAK2, IGF1R, InsR, Mer, MET, TrkB and TrkC.
(§7) The assays were conducted using the Caliper LabChip 3000 and a 12-sipper LabChip as described above.
Method for AurA: as §5, §7
Method for FAK2(PTK2b): as §5, §6, §7
Method for IGF1R: as §5
Method for INSR: as §5

As for `CC(C)c1cc(Nc2nc(N3CCCC3C(=O)Nc3ccc(F)nc3)nc3c2CCC3)n[nH]1` (single isomer, unassigned) [Compound 8b], the IC50 in the assay on MDA MB 175 (MDAMB175, breast cancer, 72 h) was less than 10 µM; in the assay with COLO 205 (setting [1]) it was less than 0.01 µM; against AXL it was 0.00976 µM; in the assay with A549 (72 h), less than 10 µM; in the assay with BT-20 (BT-20, BT20, breast cancer, 72 h) it was less than 10 µM; against ROS(ROS1) (ROS1, range of concentrations from 0.03 nM to 1), 0.015 µM. Moreover, the values for the IC50 at FAK2(PTK2b), against AurA and in the assay with MDA MB 231 (72 h) were 0.00236 µM, 0.132 µM and 10 µM, respectively. Moreover, the inhibition at 0.001 µM on IGF1R (setting [2]) is less than 39%; on AXL (read-out: Average % Inh @ 1 nM), less than 39%; on ROS(ROS1) (ROS (ROS1), 1 nM, read-out: Average % Inh @ 1 nM) it was 40 to 59%; on INSR (setting [2]) it was 40 to 59%; on MET (setting [2]), less than 39%. In addition, the inhibition at 0.01 µM was more than 60% on IGF1R; 40 to 59% at AXL; more than 60% at ROS(ROS1) (ROS (ROS1)); more than 60% at INSR; 40 to 59% at MET.
With `O=C(Nc1cnccn1)C1CCCN1c1nc2c(c(Nc3cc(C4CC4)[nH]n3)n1)CCC2` (single isomer, unassigned) [Compound 6b], the IC50 in the assay with MDA MB 175 (setting [3]) is less than 1 µM; with COLO 205 (setting [4]) it was less than 0.1 µM; with A549 (setting [5]), less than 1 µM; with BT-20 (setting [6]), 1 µM; in the assay with MDA MB 231 (setting [5]), less than 1 µM. The “inhibition of AXL in panel of 11 kinases” value at AXL was “strongly inhibited”. Also, at FAK2(PTK2b), the “inhibition of FAK2 in panel of 11 kinases” value is on record as “strongly inhibited”.
With `O=C(Nc1ccc(F)nc1)C1CCCN1c1nc2c(c(Nc3cc(C4CC4)[nH]n3)n1)CCC2` (single isomer, unassigned) [Compound 2b, 1-(4-(5-cyclopropyl-1H-pyrazol-3-ylamino)-6,7-dihydro-5H-cyclopenta[d]pyrimidin-2-yl)-N-(6-fluoropyridin-3-yl)pyrrolidine-2-carboxamide], the half-maximal inhibitory concentration (IC50) is less than 10 µM in the assay on MDA MB 175 (setting [3]); less than 0.1 µM in the assay with COLO 205 (setting [4]); less than 0.01 µM in the assay with COLO 205 (setting [1]); 1 µM in the assay with A549 (72 h); less than 1 µM in the assay on A549 (setting [5]); 1 µM with BT-20 (setting [6]). Moreover, it took 1 µM to reach half-maximal inhibition in the assay with MDA MB 231 (setting [5]) (IC50). The inhibition at 0.01 µM on IGF1R was less than 39%; on AXL it was 40 to 59%; on ROS(ROS1) (ROS (ROS1)), more than 60%; on AurA (read-out: Average % Inh @ 10 nM) it was less than 39%; on INSR, less than 39%; on MET, less than 39%. In addition, the inhibition at 0.1 µM at IGF1R (setting [7]) is 40 to 59%; at AXL (setting [9]), more than 60%; on ROS(ROS1) (ROS (ROS1), 100 nM, read-out: Average % Inh @ 100 nM) it was more than 60%; on AurA (setting [9]), more than 60%; at INSR (setting [7]) it was more than 60%; on MET (setting [7]) it was more than 60%. Moreover, the inhibition at 1 µM is more than 60% on IGF1R (setting [8]); more than 60% at AXL (read-out: Average % Inh @ 1 μM); more than 60% at ROS(ROS1) (ROS (ROS1), 1 μM, read-out: Average % Inh @ 1 μM); more than 60% at AurA (read-out: Average % Inh @ 1 μM); more than 60% at INSR (setting [8]); more than 60% on MET (setting [8]).
Regarding `O=C(Nc1ccc(F)nc1)C1CCN1c1nc2c(c(Nc3cc(C4CC4)[nH]n3)n1)CCC2` (racemic) [Compound 5, 1-(4-(5-cyclopropyl-1H-pyrazol-3-ylamino)-6,7-dihydro-5H-cyclopenta[d]pyrimidin-2-yl)-N-(6-fluoropyridin-3-yl)azetidine-2-carboxamide], the IC50 in the assay with MDA MB 175 (setting [3]) is 1 µM; in the assay on COLO 205 (setting [4]) it was 0.1 µM; in the assay with A549 (setting [5]), less than 1 µM; in the assay with BT-20 (setting [6]) it was less than 10 µM; with MDA MB 231 (setting [5]), less than 10 µM. In addition, the “inhibition of AXL in panel of 11 kinases” value against AXL is given as “strongly inhibited”. For the same molecule, the “inhibition of FAK2 in panel of 11 kinases” value against FAK2(PTK2b) is on record as “strongly inhibited”.

One may read the IC50 as the concentration at which inhibition is half-maximal. The low end stands for higher potency, the high end for lower potency.
